{"source": "paper PMC8842277", "about": "“Highly Antiproliferative Latonduine and Indolo[2,3-c]quinoline Derivatives: Complex Formation with Copper(II) Markedly Changes the Kinase Inhibitory Profile” (Journal of Medicinal Chemistry, 2022)", "key": {"EF2K": {"molecular_target": "EF2K (Homo sapiens, UniProt O00418)", "assay": "Kinase panel screen", "assay_type": "biochemical", "conditions": "10 µM compound", "source_text": "(§1) Figure 7 (see also Table S4) summarizes the results of this assay as a histogram plotting the percentage of the remaining enzyme activity (x-axis) as a function of added lead compound (HL^8: blue trace, 8: red trace) for each of the 50 enzymes assayed (y-axis). […] Thus, the coordination to copper(II) completely changes the kinase inhibition profile of HL^8.\n(§2) Figure 7 Screening of HL^8 and 8 against 50 enzymes: histogram with % remaining activity on the x-axis plotted against the compound identifier (blue trace: HL^8 and red trace: 8) and enzyme identifier on the […]. The screen was carried out at a compound concentration of 10 μM, an enzyme concentration of 50 nM, and an ATP concentration of 100 μM.\n(§3) All kinase assays were carried out using Multidrop 384’s at room temperature in a total assay volume of 25.5 μL. To plates containing 0.5 μL of HL^8 and 8, DMSO control or acid blank […], 15 μL of an enzyme mix containing enzyme […], and excess peptide/protein substrate in buffer was added. Compounds were pre-incubated in the presence of the enzyme and peptide/protein substrate for 5 min before initiation of the reaction by addition of 10 μL of ATP (final concentration selected for each kinase at 5, 20, or 50 μM). Assays were carried out for 30 min at room temperature before termination by the addition of 5 μL of orthophosphoric acid. The assay plates were then harvested onto P81 Unifilter Plates by a PerkinElmer Harvester and air dried. The dry Unifilter plates were then sealed on the addition of MicroScint O and were counted in PerkinElmer Topcount scintillation counters."}, "Src": {"molecular_target": "Src (Homo sapiens, UniProt P12931)", "sequence (P12931 whole entry)": "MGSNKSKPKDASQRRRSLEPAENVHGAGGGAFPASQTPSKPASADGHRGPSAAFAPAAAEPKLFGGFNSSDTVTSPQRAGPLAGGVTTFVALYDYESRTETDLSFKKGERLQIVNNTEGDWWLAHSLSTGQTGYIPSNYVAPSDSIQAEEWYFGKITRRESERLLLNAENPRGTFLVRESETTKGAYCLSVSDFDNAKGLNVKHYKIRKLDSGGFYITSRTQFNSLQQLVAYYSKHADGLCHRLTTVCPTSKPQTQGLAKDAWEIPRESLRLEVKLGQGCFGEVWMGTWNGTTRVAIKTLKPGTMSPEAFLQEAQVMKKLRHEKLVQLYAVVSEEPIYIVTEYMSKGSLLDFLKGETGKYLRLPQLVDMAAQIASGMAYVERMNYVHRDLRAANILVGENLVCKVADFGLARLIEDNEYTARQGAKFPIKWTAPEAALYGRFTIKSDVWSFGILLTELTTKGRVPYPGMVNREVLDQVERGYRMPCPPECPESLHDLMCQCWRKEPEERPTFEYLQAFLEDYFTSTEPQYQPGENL", "assay": "Kinase panel screen", "assay_type": "biochemical", "conditions": "10 µM compound", "source_text": "as §1, §2, §3"}, "CHK2": {"molecular_target": "CHK2 (Homo sapiens, UniProt O96017)", "sequence (O96017 whole entry)": "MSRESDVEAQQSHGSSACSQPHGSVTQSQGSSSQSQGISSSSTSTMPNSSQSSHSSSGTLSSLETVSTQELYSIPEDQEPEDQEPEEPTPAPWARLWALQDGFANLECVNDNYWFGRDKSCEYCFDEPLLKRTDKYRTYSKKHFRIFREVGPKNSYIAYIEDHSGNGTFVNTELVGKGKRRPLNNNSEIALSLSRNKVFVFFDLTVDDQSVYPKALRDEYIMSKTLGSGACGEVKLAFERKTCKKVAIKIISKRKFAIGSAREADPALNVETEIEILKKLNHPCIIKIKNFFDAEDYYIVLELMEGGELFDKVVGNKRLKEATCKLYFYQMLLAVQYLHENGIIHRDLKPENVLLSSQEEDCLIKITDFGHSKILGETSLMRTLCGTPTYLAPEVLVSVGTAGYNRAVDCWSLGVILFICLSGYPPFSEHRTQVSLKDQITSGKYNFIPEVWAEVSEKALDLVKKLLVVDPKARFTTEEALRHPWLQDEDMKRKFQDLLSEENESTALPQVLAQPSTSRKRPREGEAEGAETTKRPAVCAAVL", "assay": "Kinase panel screen", "assay_type": "biochemical", "conditions": "10 µM compound", "source_text": "as §1, §2, §3"}, "RIPK2": {"molecular_target": "RIPK2 (Homo sapiens, UniProt O43353)", "sequence (O43353 whole entry)": "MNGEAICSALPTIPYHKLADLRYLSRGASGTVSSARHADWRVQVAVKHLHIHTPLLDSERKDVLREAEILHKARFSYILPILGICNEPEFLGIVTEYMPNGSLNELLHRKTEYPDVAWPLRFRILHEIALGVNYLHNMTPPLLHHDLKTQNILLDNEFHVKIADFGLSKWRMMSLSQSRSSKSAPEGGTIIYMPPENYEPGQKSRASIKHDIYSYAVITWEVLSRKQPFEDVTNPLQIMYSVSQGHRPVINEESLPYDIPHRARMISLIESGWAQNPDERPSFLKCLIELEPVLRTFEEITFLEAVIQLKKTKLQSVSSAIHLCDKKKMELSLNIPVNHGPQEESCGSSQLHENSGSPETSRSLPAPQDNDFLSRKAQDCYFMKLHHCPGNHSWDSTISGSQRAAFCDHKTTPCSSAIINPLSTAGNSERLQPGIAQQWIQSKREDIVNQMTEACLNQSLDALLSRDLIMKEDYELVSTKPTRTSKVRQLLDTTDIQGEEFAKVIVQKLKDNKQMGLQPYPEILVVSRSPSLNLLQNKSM", "assay": "Kinase panel screen", "assay_type": "biochemical", "conditions": "10 µM compound", "source_text": "as §1, §2, §3"}, "PKBa": {"molecular_target": "PKBa (Homo sapiens, UniProt P31749)", "sequence (P31749 whole entry)": "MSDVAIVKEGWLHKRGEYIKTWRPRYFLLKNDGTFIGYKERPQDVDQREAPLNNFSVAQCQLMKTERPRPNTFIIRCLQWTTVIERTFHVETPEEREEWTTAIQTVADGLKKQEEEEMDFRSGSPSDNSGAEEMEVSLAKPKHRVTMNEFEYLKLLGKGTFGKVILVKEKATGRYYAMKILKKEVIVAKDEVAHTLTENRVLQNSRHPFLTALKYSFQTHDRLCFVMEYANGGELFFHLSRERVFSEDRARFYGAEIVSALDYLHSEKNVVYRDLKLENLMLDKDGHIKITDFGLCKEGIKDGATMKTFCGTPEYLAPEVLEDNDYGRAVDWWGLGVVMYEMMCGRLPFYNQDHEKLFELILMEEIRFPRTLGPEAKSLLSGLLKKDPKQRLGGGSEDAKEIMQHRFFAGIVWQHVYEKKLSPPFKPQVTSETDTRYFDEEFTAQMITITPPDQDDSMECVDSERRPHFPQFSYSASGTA", "assay": "Kinase panel screen", "assay_type": "biochemical", "conditions": "10 µM compound", "source_text": "as §1, §2, §3"}, "DYRK1A": {"molecular_target": "DYRK1A (Homo sapiens, UniProt Q13627)", "assay": "Kinase panel screen", "assay_type": "biochemical", "conditions": "10 µM compound", "source_text": "as §1, §2, §3"}, "JAK3": {"molecular_target": "JAK3 (Homo sapiens, UniProt P52333)", "assay": "Kinase panel screen", "assay_type": "biochemical", "conditions": "10 µM compound", "source_text": "as §1, §2, §3"}, "PAK4": {"molecular_target": "PAK4 (Homo sapiens, UniProt O96013)", "sequence (O96013 whole entry)": "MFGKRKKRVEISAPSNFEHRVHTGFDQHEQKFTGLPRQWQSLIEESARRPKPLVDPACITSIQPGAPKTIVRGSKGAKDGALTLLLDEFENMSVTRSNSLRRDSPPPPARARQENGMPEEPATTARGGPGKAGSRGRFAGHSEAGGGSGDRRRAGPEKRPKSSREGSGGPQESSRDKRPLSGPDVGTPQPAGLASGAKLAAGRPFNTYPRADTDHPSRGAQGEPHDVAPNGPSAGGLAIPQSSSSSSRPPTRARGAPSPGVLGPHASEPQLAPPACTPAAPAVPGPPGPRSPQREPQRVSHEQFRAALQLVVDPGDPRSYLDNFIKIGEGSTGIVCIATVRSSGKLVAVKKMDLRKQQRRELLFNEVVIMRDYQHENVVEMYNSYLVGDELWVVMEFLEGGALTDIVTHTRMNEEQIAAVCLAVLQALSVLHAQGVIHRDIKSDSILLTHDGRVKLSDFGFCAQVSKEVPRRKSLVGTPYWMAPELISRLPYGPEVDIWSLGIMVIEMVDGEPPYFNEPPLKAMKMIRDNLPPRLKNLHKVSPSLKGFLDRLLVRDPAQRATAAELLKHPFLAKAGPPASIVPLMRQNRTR", "assay": "Kinase panel screen", "assay_type": "biochemical", "conditions": "10 µM compound", "source_text": "as §1, §2, §3"}, "MARK3": {"molecular_target": "MARK3 (Homo sapiens, UniProt P27448)", "sequence (P27448 whole entry)": "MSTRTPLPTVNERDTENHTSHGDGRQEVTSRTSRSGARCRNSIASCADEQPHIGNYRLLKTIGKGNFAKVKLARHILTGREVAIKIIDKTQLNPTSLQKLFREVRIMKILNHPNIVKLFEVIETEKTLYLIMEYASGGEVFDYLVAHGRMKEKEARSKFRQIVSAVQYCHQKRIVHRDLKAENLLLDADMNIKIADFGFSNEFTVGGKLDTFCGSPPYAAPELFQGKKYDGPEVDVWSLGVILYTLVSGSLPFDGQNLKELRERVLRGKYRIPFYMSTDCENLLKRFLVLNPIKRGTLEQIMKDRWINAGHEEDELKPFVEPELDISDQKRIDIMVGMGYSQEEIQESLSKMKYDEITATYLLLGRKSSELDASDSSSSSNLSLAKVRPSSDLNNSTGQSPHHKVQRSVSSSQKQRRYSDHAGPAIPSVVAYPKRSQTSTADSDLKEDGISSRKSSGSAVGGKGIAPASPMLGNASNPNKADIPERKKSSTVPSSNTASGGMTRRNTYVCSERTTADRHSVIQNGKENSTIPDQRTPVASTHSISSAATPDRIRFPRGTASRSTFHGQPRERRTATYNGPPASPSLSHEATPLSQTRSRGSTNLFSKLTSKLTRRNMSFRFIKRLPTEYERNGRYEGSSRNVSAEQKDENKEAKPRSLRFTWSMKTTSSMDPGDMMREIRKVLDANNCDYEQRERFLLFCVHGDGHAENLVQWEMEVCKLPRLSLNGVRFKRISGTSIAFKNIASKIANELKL", "assay": "Kinase panel screen", "assay_type": "biochemical", "conditions": "10 µM compound", "source_text": "as §1, §2, §3"}, "MLK3": {"molecular_target": "MLK3 (Homo sapiens, UniProt Q16584)", "assay": "Kinase panel screen", "assay_type": "biochemical", "conditions": "10 µM compound", "source_text": "as §1, §2, §3"}, "S6K1": {"molecular_target": "S6K1 (Homo sapiens, UniProt P23443)", "sequence (P23443 whole entry)": "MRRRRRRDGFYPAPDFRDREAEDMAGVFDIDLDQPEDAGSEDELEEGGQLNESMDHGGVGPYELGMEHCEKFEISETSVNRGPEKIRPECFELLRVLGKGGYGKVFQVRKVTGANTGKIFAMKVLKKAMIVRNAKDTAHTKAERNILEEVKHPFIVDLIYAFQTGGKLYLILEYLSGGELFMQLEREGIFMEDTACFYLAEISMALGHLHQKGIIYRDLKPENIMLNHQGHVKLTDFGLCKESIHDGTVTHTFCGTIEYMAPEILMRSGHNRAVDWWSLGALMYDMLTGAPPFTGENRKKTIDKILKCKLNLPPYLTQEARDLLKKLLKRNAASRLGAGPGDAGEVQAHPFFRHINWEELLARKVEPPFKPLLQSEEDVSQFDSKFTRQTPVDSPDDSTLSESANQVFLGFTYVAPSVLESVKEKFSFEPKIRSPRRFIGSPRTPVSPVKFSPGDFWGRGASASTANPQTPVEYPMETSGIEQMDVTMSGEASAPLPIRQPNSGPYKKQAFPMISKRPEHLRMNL", "assay": "Kinase panel screen", "assay_type": "biochemical", "conditions": "10 µM compound", "source_text": "as §1, §2, §3"}, "PLK1": {"molecular_target": "PLK1 (Homo sapiens, UniProt P53350)", "sequence (P53350 whole entry)": "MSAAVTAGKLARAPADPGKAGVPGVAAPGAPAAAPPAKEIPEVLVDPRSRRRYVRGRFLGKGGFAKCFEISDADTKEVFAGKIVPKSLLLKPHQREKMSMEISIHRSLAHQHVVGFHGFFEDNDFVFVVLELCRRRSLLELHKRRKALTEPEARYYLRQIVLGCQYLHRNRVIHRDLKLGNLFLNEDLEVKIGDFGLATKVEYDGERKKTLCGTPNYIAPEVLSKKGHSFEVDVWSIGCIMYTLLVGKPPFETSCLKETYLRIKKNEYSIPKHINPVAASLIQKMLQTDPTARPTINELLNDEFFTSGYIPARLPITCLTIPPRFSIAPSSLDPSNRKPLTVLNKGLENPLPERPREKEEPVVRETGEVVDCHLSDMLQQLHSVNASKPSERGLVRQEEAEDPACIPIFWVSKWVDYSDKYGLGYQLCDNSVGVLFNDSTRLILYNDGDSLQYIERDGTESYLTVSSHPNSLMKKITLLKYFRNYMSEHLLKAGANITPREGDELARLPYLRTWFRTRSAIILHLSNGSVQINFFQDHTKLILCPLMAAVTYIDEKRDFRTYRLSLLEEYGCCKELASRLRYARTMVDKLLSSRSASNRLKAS", "assay": "Kinase panel screen", "assay_type": "biochemical", "conditions": "10 µM compound", "source_text": "as §1, §2, §3"}, "[1]": {"test_system": "HCT-116 isogenic p53-knock-out subline", "assay": "MTT assay, 96 h", "assay_type": "cell-based, human", "conditions": "read-out: IC50 HCT-116p53ko, mean", "source_text": "The oncosuppressor protein p53 controls the cellular response to DNA strand breaks induced by cytotoxic drugs or by radiation.[58] The p53 protein may enhance cell chemosensitivity by promoting apoptosis via different mechanisms including activation of proapoptotic genes such as bax and repression of antiapoptotic genes such as bcl-2 or in contrast increase chemoresistance by promoting p21-mediated and p21-independent growth arrest and DNA repair and by activation of antiapoptotic genes such as bcl-x. There is strong evidence that the modulation of drug sensitivity by p53 may be both drug- and cell type-specific.[59] […] Accordingly, essential differences in chemosensitivity were observed between cells with wild-type p53 gene and cells with knocked out p53 gene by homologous recombination.[60]\nHuman colonic adenocarcinoma cell lines Colo 205 doxorubicin-sensitive (ATCC-CCL-222) and Colo 320/MDR-LRP multidrug resistant over-expressing ABCB1 (MDR1)-LRP (ATCC-CCL-220.1) were purchased from LGC Promochem, Teddington, UK. The cells were cultured in an RPMI 1640 medium supplemented with 10% heat-inactivated fetal bovine serum, 2 mM L-glutamine, 1 mM Na-pyruvate, and 10 mM HEPES. The semi-adherent human colon cancer cells were detached with Trypsin-Versene (EDTA) solution for 5 min at 37 °C. An MRC-5 human embryonal lung fibroblast cell line (ATCC CCL-171) was purchased from LGC Promochem, Teddington, UK. The cells were cultured in Eagle’s minimal essential medium (EMEM, containing 4.5 g L^–1 glucose) supplemented with a non-essential amino acid mixture, a selection of vitamins, and 10% heat-inactivated fetal bovine serum. The HCT-116 colon carcinoma cells and isogenic p53-knock-out subline were a gift of Prof. Bert Vogelstein from The Johns Hopkins Oncology Center. Cells were cultured in McCoy’s 5A medium supplemented with 10% heat-inactivated fetal bovine serum and 4 mM L-glutamine. All cell lines were incubated at 37 °C, in a 5% CO2, 95% air atmosphere.\nMRC-5 non-cancerous human embryonic lung fibroblast and human colonic adeno-carcinoma cell lines (doxorubicin-sensitive Colo 205 and multidrug resistant Colo 320 colonic adenocarcinoma cells) were used to determine the effect of compounds on cell growth. The effects of increasing concentrations of compounds on cell growth were tested in 96-well flat-bottomed microtiter plates. The compounds were dissolved in DMSO and stock solutions of 10 mM were prepared. These were further diluted in the appropriate cell culture medium by twofold serial dilution starting from 100 or 10 μM for the compounds. The adherent human embryonal lung fibroblast cells were cultured in 96-well flat-bottomed microtiter plates using EMEM supplemented with 10% heat-inactivated fetal bovine serum. The density of the cells was adjusted to 1 × 10^4 cells in 100 μL per well, the cells were seeded for 24 h at 37 °C, 5% CO2, then the medium was removed from the plates containing the cells, and the dilutions of compounds previously made in a separate plate were added to the cells in 200 μL. In the case of the colonic adenocarcinoma cells, the twofold serial dilutions of compounds were prepared in 100 μL of RPMI 1640, horizontally. The semi-adherent colonic adenocarcinoma cells were treated with Trypsin-Versene (EDTA) solution. They were adjusted to a density of 1 × 10^4 cells in 100 μL of RPMI 1640 medium and were added to each well, with the exception of the medium control wells. […]"}}, "note": "pIC50: −log10 of the molar value.", "data": [{"smiles": "CC(=NNc1nc2ccccc2c2c1[nH]c1ccc(Br)cc12)c1ccc(CN2CCOCC2)cn1.[Cl][Cu][Cl]", "note": "[compound 8, CuCl2(HL^8)·H2O]", "values": [{"measurement": "% remaining activity", "setting": "EF2K", "result": 108, "unit": "%"}, {"measurement": "% remaining activity", "setting": "Src", "result": 125, "unit": "%"}, {"measurement": "% remaining activity", "setting": "CHK2", "result": 119, "unit": "%"}, {"measurement": "% remaining activity", "setting": "RIPK2", "result": 95, "unit": "%"}, {"measurement": "% remaining activity", "setting": "PKBa", "result": 82, "unit": "%"}, {"measurement": "% remaining activity", "setting": "DYRK1A", "result": 77, "unit": "%"}, {"measurement": "% remaining activity", "setting": "JAK3", "result": 120, "unit": "%"}, {"measurement": "% remaining activity", "setting": "PAK4", "result": 144, "unit": "%"}, {"measurement": "% remaining activity", "setting": "MARK3", "result": 112, "unit": "%"}, {"measurement": "% remaining activity", "setting": "MLK3", "result": 41, "unit": "%"}, {"measurement": "% remaining activity", "setting": "S6K1", "result": 109, "unit": "%"}, {"measurement": "% remaining activity", "setting": "PLK1", "result": 90, "unit": "%"}, {"measurement": "pIC50", "setting": "[1]", "result": 7.39}]}]}
